“Also recorded” adds a separate entry of the source. Read-outs that look alike come from different tables or passages of the source.
Assays:
Type in all cases: biochemical
[1] = tested on: Mutanase A (RM1 enzyme) from Bacillus sp. RM1 (FERM P-14836)
Protocol: (§1) To 100 μl of a 0.1M acetic acid buffer containing 3% mutan (pH 5) was added 100 μl of the mutanase solution. The mixture was incubated at 35° C. for 10 minutes with shaking at 100 strokes/min. Reaction was terminated by adding 0.4 ml of a 4,6-dinitrosalicylic acid (DNS) solution. The reaction mixture was centrifuged and 0.5 ml of the supernatant was transferred into a test tube. The tube was capped with a glass ball and kept in boiling water for 10 minutes. The tube was cooled with water for 5 minutes. Then 4 ml of distilled water was added and optical absorbance measured at 530 nm. A titer was determined using glucose as standard. The amount of enzyme which releases 1 μg of reducing sugar per minute is defined as one unit. It is noted that the enzymatic activity referred to below in conjunction with any of physicochemical properties is measured by this method.
(§2) Mutanase according to the invention was added to a 50 mM acetic acid buffer (pH 5) in an amount of 50 units/ml. Various inhibitors were individually added thereto in a final concentration of 1 mM. The solution was incubated at 35° C. for 30 minutes. The relative activity is expressed based on the assumption that the enzymatic activity of an inhibitor-free sample is 100%.

[2] = tested on: Mutanase B (RM4 enzyme) from Bacillus sp. RM4 (FERM P-14837)
Protocol: as §1, §2

[3] = tested on: Mutanase C (M7 enzyme) from Bacillus sp. M7 (FERM P-14835)
Protocol: as §1, §2

[4] = inhibitor final concentration 1 mM, 50 mM acetic acid buffer pH 5, 35° C., 30 minutes, inhibitor-free sample = 100%
[5] = mutan substrate, 1 mM inhibitor

Q: What does the source list for `CCN1C(=O)C=CC1=O` [N-ethylmaleimide]?
A: Relative activity (%) Mutanase A [1, 4]: 100%; Relative activity (%) Mutanase B [2, 4]: 98%; Relative activity (%) Mutanase C [3, 4]: 94%

Q: How did the “Relative activity (%) Mutanase A” value [1, 4] turn out when `O=C(O)c1cc[c]([Hg][Cl])cc1` [PCMB, p-chloromercurybenzoic acid] was run?
A: The value was 6%.

Q: What about the “effect of inhibitors on mutanase A (in words)” value [1, 5] of the same molecule?
A: Its value is “shows inhibitory effect; also recorded: strongly inhibits”.

Q: And the “Relative activity (%) Mutanase B” value [2, 4]?
A: Its value is 14%.

Q: And the “effect of inhibitors on mutanase B (in words)” value [2, 5]?
A: The value was “shows inhibitory effect; also recorded: strongly inhibits”.

Q: And the “Relative activity (%) Mutanase C” value [3, 4]?
A: The value was 11%.

Q: What about the “effect of inhibitors on mutanase C (in words)” value [3, 5] of the same molecule?
A: Its value is “shows inhibitory effect; also recorded: strongly inhibits”.

Q: Which results are given for `O=C(O)CI` [Iodoacetic acid]?
A: Relative activity (%) Mutanase A ([1]; pH 5): 100%; Relative activity (%) Mutanase B ([2]; pH 5): 99%; Relative activity (%) Mutanase C ([3]; pH 5): 87%

Q: What does the source list for `O=C(O)CN(CCN(CC(=O)O)CC(=O)O)CC(=O)O` [2Na-EDTA]?
A: Relative activity (%) Mutanase A ([1]; pH 5): 93%; Relative activity (%) Mutanase B ([2]; pH 5): 99%; Relative activity (%) Mutanase C ([3]; pH 5): 79%

Source: patent US5741487A, “Mutanase-containing oral compositions” (priority 1996, dated 1998)
